Experimental data reported in ChEMBL document CHEMBL5046315, “CRCM5484: A BET-BDII Selective Compound with Differential Anti-leukemic Drug Modulation” (J Med Chem, 2022).
Calls of active or inactive are those of the source. No cut-off for these calls is given here.

How the values were obtained:
Type in all cases: functional, cell-based
CCRF-CEM [1] = assay: Cytotoxicity against human CCRF-CEM cells assessed as reduction in cell viability incubated for 72 hrs
U-937 [2] = assay: Potentiation of daunorubicine-induced antileukemic activity against human U-937 cells at 4.3 uM in presence of bone-marrow derived stromal cell-conditioned medium
U-937 [3] = assay: Potentiation of trametinib-induced antileukemic activity against human U-937 cells at 4.3 uM in presence of bone-marrow derived stromal cell-conditioned medium
K562 [4] = assay: Inhibition of IFNgamma induced MHC-1 expression in human K562 cells treated for 48 hrs by flow cytometric analysis; conditions: dose 0.2-20 µM
CCRF-CEM [5] = assay: Potentiation of ruxolitinib-induced antileukemic activity against human CCRF-CEM cells at 4.3 uM in presence of bone-marrow derived stromal cell-conditioned medium
K562 [6] = assay: Cytotoxicity against human K562 cells assessed as reduction in cell viability incubated for 72 hrs; conditions: K562, 72 h
U-937 [7] = assay: Potentiation of niotinib-induced antileukemic activity against human U-937 cells at 4.3 uM in presence of bone-marrow derived stromal cell-conditioned medium
MOLM-14 [8] = assay: Potentiation of AG-221-induced antileukemic activity against human MOLM-14 cells at 4.3 uM in presence of bone-marrow derived stromal cell-conditioned medium
MOLM-14 [9] = assay: Potentiation of temsirolimus-induced antileukemic activity against human MOLM-14 cells at 4.3 uM in presence of bone-marrow derived stromal cell-conditioned medium
U-937 [10] = assay: Potentiation of BKM120-induced antileukemic activity against human U-937 cells at 4.3 uM in presence of bone-marrow derived stromal cell-conditioned medium
U-937 [11] = assay: Potentiation of -nutlin 3-induced antileukemic activity against human U-937 cells at 4.3 uM in presence of bone-marrow derived stromal cell-conditioned medium
CCRF-CEM [12] = assay: Potentiation of daunorubicine-induced antileukemic activity against human CCRF-CEM cells at 4.3 uM in presence of bone-marrow derived stromal cell-conditioned medium
MOLM-14 [13] = assay: Potentiation of rigosertib-induced antileukemic activity against human MOLM-14 cells at 4.3 uM in presence of bone-marrow derived stromal cell-conditioned medium
CCRF-CEM [14] = assay: Potentiation of gefitinib-induced antileukemic activity against human CCRF-CEM cells at 4.3 uM in presence of bone-marrow derived stromal cell-conditioned medium
CCRF-CEM [15] = assay: Potentiation of OTX015-induced antileukemic activity against human CCRF-CEM cells at 4.3 uM in presence of bone-marrow derived stromal cell-conditioned medium
CCRF-CEM [16] = assay: Potentiation of AT9283-induced antileukemic activity against human CCRF-CEM cells at 4.3 uM in presence of bone-marrow derived stromal cell-conditioned medium
CCRF-CEM [17] = assay: Potentiation of crenolatinib-induced antileukemic activity against human CCRF-CEM cells at 4.3 uM in presence of bone-marrow derived stromal cell-conditioned medium
MOLM-14 [18] = assay: Potentiation of dasatinib-induced antileukemic activity against human MOLM-14 cells at 4.3 uM in presence of bone-marrow derived stromal cell-conditioned medium
U-937 [19] = assay: Potentiation of selinexor-induced antileukemic activity against human U-937 cells at 4.3 uM in presence of bone-marrow derived stromal cell-conditioned medium
MOLM-14 [20] = assay: Potentiation of asparaginase-induced antileukemic activity against human MOLM-14 cells at 4.3 uM in presence of bone-marrow derived stromal cell-conditioned medium
CCRF-CEM [21] = assay: Potentiation of midostaurin-induced antileukemic activity against human CCRF-CEM cells at 4.3 uM in presence of bone-marrow derived stromal cell-conditioned medium
CCRF-CEM [22] = assay: Potentiation of trametinib-induced antileukemic activity against human CCRF-CEM cells at 4.3 uM in presence of bone-marrow derived stromal cell-conditioned medium
CCRF-CEM [23] = assay: Potentiation of -nutlin 3-induced antileukemic activity against human CCRF-CEM cells at 4.3 uM in presence of bone-marrow derived stromal cell-conditioned medium
U-937 [24] = assay: Potentiation of topotecan-induced antileukemic activity against human U-937 cells at 4.3 uM in presence of bone-marrow derived stromal cell-conditioned medium
MOLM-14 [25] = assay: Potentiation of EPZ5676-induced antileukemic activity against human MOLM-14 cells at 4.3 uM in presence of bone-marrow derived stromal cell-conditioned medium

CC(=O)N1CCc2c(sc3nc(SCC(=O)Nc4cccnc4C)n(Cc4ccco4)c(=O)c23)C1
EC50 (CCRF-CEM [1]): > 5 µM | Activity (U-937 [2]): inactive | Activity (U-937 [3]): inactive | Activity (K562 [4]): Dose-Dependent Effect | Activity (CCRF-CEM [5]): inactive | EC50 (K562 [6]): > 5 µM | Activity (U-937 [7]): inactive | Activity (MOLM-14 [8]): inactive | Activity (MOLM-14 [9]): inactive | Activity (U-937 [10]): inactive | Activity (U-937 [11]): inactive | Activity (CCRF-CEM [12]): inactive | Activity (MOLM-14 [13]): inactive | Activity (CCRF-CEM [14]): inactive | Activity (CCRF-CEM [15]): inactive | Activity (CCRF-CEM [16]): inactive | Activity (CCRF-CEM [17]): inactive | Activity (MOLM-14 [18]): inactive | Activity (U-937 [19]): inactive | Activity (MOLM-14 [20]): inactive | Activity (CCRF-CEM [21]): inactive | Activity (CCRF-CEM [22]): inactive | Activity (CCRF-CEM [23]): inactive | Activity (U-937 [24]): inactive | Activity (MOLM-14 [25]): inactive
